Where a name gives a salt, the structure may show the parent alone.
Experiments:
[1] = system: Human whole blood stimulated with a TLR2 agonist (lipoteichoic acid), IL-6 levels; test: IRAK4 Whole Blood Assay; type: cell-based; conditions: lipoteichoic acid 10 μg/mL
Method in brief: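 IL-6 was quantified by cytometric bead assay in supernatants of human blood (ACD-A) stimulated for 5 h with lipoteichoic acid at 10 μg/mL final. Compound exposure preceded stimulation for 60 min at 37 °C, 5% CO2.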

[2] = Caco-2 Permeability Assay; type: in vitro ADME; conditions: human, Caco-2, test compound 3 μM
Protocol: Caco-2 Permeability Assay
Thirteen to 27 days prior to assay, Caco-2 cells were seeded onto collagen-coated polycarbonate filter membranes in 24-well transwell plates at a density of 1.45×10^5 cells/cm^2, approximately 4.8×10^4 cells per well. The cells were grown in a culture medium consisting of DMEM supplemented with 10% fetal bovine serum, 10 mM HEPES, 1% nonessential amino acids, 2 mM L-glutamine, 100 U/mL penicillin-G, and 100 μg/mL streptomycin. The culture medium was replaced every 3 days and the cells were maintained at 37° C. in a 95% relative humidity and 5% CO2 atmosphere. The cells were evaluated for tight junction formation just prior to assay. The test compound was solubilized to 10 mM in 100% DMSO and diluted to 3 μM in assay buffer. Permeability studies were initiated by adding 200 μL assay buffer plus/minus compound to the apical transwell compartment and 600 μL assay buffer plus/minus compound to the basolateral compartment of the 24-well transwell low-binding cluster plate. For apical-to-basolateral (A to B) permeability (absorptive direction), buffer containing compound was placed in the apical compartment (donor wells), while buffer alone was placed in the corresponding basolateral compartments (receiver wells). For basolateral-to-apical (B to A) permeability (secretive direction), buffer containing compound was placed in the basolateral compartment (donor wells), while buffer alone was placed in the corresponding apical compartments (receiver wells). Transwells were then incubated for 2 hours at 37° C. in a 95% relative humidity and 5% CO2 atmosphere with gentle agitation. Following incubation, 100 μL was removed from each apical and basolateral compartment and transferred to 96-well low binding plates that had been previously loaded with 100 μL/well of acetonitrile containing 250 nM propranolol, 250 nM diclofenac, and 500 nM tolbutamide as internal standards. The samples were subsequently analyzed by LC-MS/MS to determine concentrations of compound.

IRAK4 = IRAK4 (Homo sapiens (Human), UniProt Q9NWZ3); test: IRAK4 Inhibition Assay; type: biochemical; conditions: ATP 500 μM; IRAK4 0.6 nM
Method in brief: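 Mobility-shift kinase assay: 0.6 nM IRAK4, 500 μM ATP, 1.5 μM fluorescent peptide, 60 min, room temperature. Percent inhibition was normalised between enzyme-free and DMSO-only wells.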

Sequence of IRAK4 (Q9NWZ3 whole entry, species assumed): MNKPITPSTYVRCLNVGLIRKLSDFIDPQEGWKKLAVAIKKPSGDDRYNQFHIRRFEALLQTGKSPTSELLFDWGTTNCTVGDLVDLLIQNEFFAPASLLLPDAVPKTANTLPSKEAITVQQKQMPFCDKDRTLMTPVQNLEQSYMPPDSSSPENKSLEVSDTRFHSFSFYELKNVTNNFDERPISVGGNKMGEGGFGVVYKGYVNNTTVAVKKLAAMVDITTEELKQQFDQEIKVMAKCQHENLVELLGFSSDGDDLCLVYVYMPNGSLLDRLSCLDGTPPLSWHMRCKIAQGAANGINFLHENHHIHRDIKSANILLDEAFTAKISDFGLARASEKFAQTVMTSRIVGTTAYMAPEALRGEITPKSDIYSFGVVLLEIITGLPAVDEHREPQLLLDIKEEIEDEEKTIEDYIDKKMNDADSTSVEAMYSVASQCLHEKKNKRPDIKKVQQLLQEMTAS

EC50 ([1]; Homo sapiens) | Papp at 2 h, 3 µM [2] | IC50 (IRAK4) | EC50 [1] | Compound
1510 nM | 2.6 ×10⁻⁶ cm/s | 6 nM | – | COC(=O)N1CC[C@@H](n2cc(-c3cnc(-n4ncc5cc(C#N)cnc54)cc3NC3CC3)nn2)[C@](C)(O)C1 (relative stereo) [Example 208, (trans)-methyl 4-(4-(6-(5-cyano-1H-pyrazolo[3,4-b]pyridin-1-yl)-4-(cyclopropylamino)pyridin-3-yl)-1H-1,2,3-triazol-1-yl)-3-hydroxy-3-methylpiperidine-1-carboxylate]
– | 15.9 ×10⁻⁶ cm/s | 7 nM | 1970 nM | CC(C)Nc1cc(-n2ncc3cc(C#N)cnc32)ncc1-c1cn(CC2CC2(F)F)nn1 (single isomer, unassigned) [Example 31, 1-(5-(1-((2,2-difluorocyclopropyl)methyl)-1H-1,2,3-triazol-4-yl)-4-(isopropylamino)pyridin-2-yl)-1H-pyrazolo[3,4-b]pyridine-5-carbonitrile]
1290 nM | 7.1 ×10⁻⁶ cm/s | 5 nM | – | CC(C)Nc1cc(-n2ncc3cc(C#N)cnc32)ncc1-c1cn([C@H](C)[C@H](C)O)nn1 (single isomer, unassigned) [Example 88]
– | 10.1 ×10⁻⁶ cm/s | 4 nM | 170 nM | CC(C)Nc1cc(-n2ncc3cc(C#N)cnc32)ncc1-c1cn([C@@H](C)[C@H](C)O)nn1 (single isomer, unassigned) [Example 90]
– | 12.4 ×10⁻⁶ cm/s | 11 nM | 1120 nM | CCC(C)(O)Cn1cc(-c2cnc(-n3ncc4cc(C#N)cnc43)cc2NC(C)C)nn1 (single isomer, unassigned) [Example 92, 1-(5-(1-(2-hydroxy-2-methylbutyl)-1H-1,2,3-triazol-4-yl)-4-(isopropylamino)pyridin-2-yl)-1H-pyrazolo[3,4-b]pyridine-5-carbonitrile]
170 nM | < 1.5 ×10⁻⁶ cm/s | 3 nM | – | CC(=O)N1CC[C@@H](n2cc(-c3cnc(-n4ncc5cc(C#N)cnc54)cc3NC(C)C)nn2)[C@H](O)C1 (single isomer, unassigned) [Example 197, 1-(5-(1-((trans)-1-acetyl-3-hydroxypiperidin-4-yl)-1H-1,2,3-triazol-4-yl)-4-(isopropylamino)pyridin-2-yl)-1H-pyrazolo[3,4-b]pyridine-5-carbonitrile]
720 nM | < 1.5 ×10⁻⁶ cm/s | 4 nM | – | CC(=O)N1CC[C@@H](n2cc(-c3cnc(-n4ncc5cc(C#N)cnc54)cc3NC(C)C)nn2)[C@H](O)C1 (single isomer, unassigned) [Example 203]
1900 nM | 2 ×10⁻⁶ cm/s | 3 nM | – | CC(C)Nc1cc(-n2ncc3cc(C#N)cnc32)ncc1-c1cn([C@@H]2CCN(C(=O)C(C)(C)C)C[C@H]2O)nn1 (single isomer, unassigned) [Example 206]
510 nM | 4.3 ×10⁻⁶ cm/s | 2 nM | – | CC(C)Nc1cc(-n2ncc3cc(C#N)cnc32)ncc1-c1cn([C@@H]2CCN(S(C)(=O)=O)C[C@H]2F)nn1 (single isomer, unassigned) [Example 210, 1-(5-(1-((trans)-3-fluoro-1-(methylsulfonyl)piperidin-4-yl)-1H-1,2,3-triazol-4-yl)-4-(isopropylamino)pyridin-2-yl)-1H-pyrazolo[3,4-b]pyridine-5-carbonitrile]
200 nM | 47.4 ×10⁻⁶ cm/s | 6 nM | – | CC(F)Cc1cn(-c2cnc(-n3ncc4cc(C#N)cnc43)cc2NC(C)C)nn1 (single isomer, unassigned) [Example 289, 1-(5-(4-(2-fluoropropyl)-1H-1,2,3-triazol-1-yl)-4-(isopropylamino)pyridin-2-yl)-1H-pyrazolo [3,4-b]pyridine-5-carbonitrile]
430 nM | 9.7 ×10⁻⁶ cm/s | 2 nM | – | CC(C)(O)CCc1cn(-c2cnc(-n3ncc4cc(C#N)cnc43)cc2NC2CCC(F)(F)C2)nn1 (single isomer, unassigned) [Example 347, 1-(4-((3,3-difluorocyclopentyl)amino)-5-(4-(3-hydroxy-3-methylbutyl)-1H-1,2,3-triazol-1-yl)pyridin-2-yl)-1H-pyrazolo[3,4-b]pyridine-5-carbonitrile]
– | 36.1 ×10⁻⁶ cm/s | 6 nM | 110 nM | CC(F)Cn1cc(-c2cnc(-n3ncc4cc(C#N)cnc43)cc2NC(C)C)nn1 (single isomer, unassigned; enantiomer 1) [Example 166, 1-(5-(1-(2-fluoropropyl)-1H-1,2,3-triazol-4-yl)-4-(isopropylamino)pyridin-2-yl)-1H-pyrazolo[3,4-b]pyridine-5-carbonitrile, enantiomer 1]
560 nM | 33 ×10⁻⁶ cm/s | 2 nM | – | CC(C)Nc1cc(-n2ccc3cncnc32)ncc1-c1cn(CCN2CCOCC2)nn1 [Example 3, N-isopropyl-5-(1-(2-morpholinoethyl)-1H-1,2,3-triazol-4-yl)-2-(7H-pyrrolo[2,3-d]pyrimidin-7-yl)pyridin-4-amine]
2530 nM | < 1.5 ×10⁻⁶ cm/s | 3 nM | – | CC(C)Nc1cc(-n2ccc3cncnc32)ncc1-c1cn([C@@H]2CCNC[C@H]2O)nn1 [Example 4, (3R,4R)-4-(4-(4-(isopropylamino)-6-(7H-pyrrolo[2,3-d]pyrimidin-7-yl)pyridin-3-yl)-1H-1,2,3-triazol-1-yl)piperidin-3-ol]
1450 nM | 1.7 ×10⁻⁶ cm/s | 5 nM | – | CC(C)Nc1cc(-n2ccc3cncnc32)ncc1-c1cn([C@H]2CCNC[C@H]2O)nn1 [Example 6, (3R,4S)-4-(4-(4-(isopropylamino)-6-(7H-pyrrolo[2,3-d]pyrimidin-7-yl)pyridin-3-yl)-1H-1,2,3-triazol-1-yl)piperidin-3-ol]
4120 nM | 3.9 ×10⁻⁶ cm/s | 7 nM | – | CC(C)Nc1cc(-n2ccc3cncnc32)ncc1-c1cn([C@@H]2CCNC[C@@H]2O)nn1 [Example 7, (3S,4R)-4-(4-(4-(isopropylamino)-6-(7H-pyrrolo[2,3-d]pyrimidin-7-yl)pyridin-3-yl)-1H-1,2,3-triazol-1-yl)piperidin-3-ol]
400 nM | 5.5 ×10⁻⁶ cm/s | 3 nM | – | CC(C)CCn1cc(-c2cnc(-n3ncc4cc(C#N)cnc43)cc2NC(C)C)nn1 [Example 10, 1-(5-(1-isopentyl-1H-1,2,3-triazol-4-yl)-4-(isopropylamino)pyridin-2-yl)-1H-pyrazolo[3,4-b]pyridine-5-carbonitrile, TFA]
1950 nM | 2.8 ×10⁻⁶ cm/s | 11 nM | – | CC(C)Nc1cc(-n2ncc3cc(C#N)cnc32)ncc1-c1cn(CCO)nn1 [Example 11, 1-(5-(1-(2-hydroxyethyl)-1H-1,2,3-triazol-4-yl)-4-(isopropylamino)pyridin-2-yl)-1H-pyrazolo[3,4-b]pyridine-5-carbonitrile]
310 nM | 23.4 ×10⁻⁶ cm/s | 4 nM | – | CC(C)Nc1cc(-n2ncc3cc(C#N)cnc32)ncc1-c1cn(CCN2CCOCC2)nn1 [Example 12, 1-(4-(isopropylamino)-5-(1-(2-morpholinoethyl)-1H-1,2,3-triazol-4-yl)pyridin-2-yl)-1H-pyrazolo[3,4-b]pyridine-5-carbonitrile]
270 nM | 22.9 ×10⁻⁶ cm/s | 3 nM | – | N#Cc1cnc2c(cnn2-c2cc(NC3CC3)c(-c3cn(CCN4CCOCC4)nn3)cn2)c1 [Example 13, 1-(4-(cyclopropylamino)-5-(1-(2-morpholinoethyl)-1H-1,2,3-triazol-4-yl)pyridin-2-yl)-1H-pyrazolo[3,4-b]pyridine-5-carbonitrile]
490 nM | 4.1 ×10⁻⁶ cm/s | 3 nM | – | N#Cc1cnc2c(cnn2-c2cc(NC3CC3)c(-c3cn(CCO)nn3)cn2)c1 [Example 14, 1-(4-(cyclopropylamino)-5-(1-(2-hydroxyethyl)-1H-1,2,3-triazol-4-yl)pyridin-2-yl)-1H-pyrazolo[3,4-b]pyridine-5-carbonitrile]
230 nM | 27.3 ×10⁻⁶ cm/s | – | – | CC(C)Nc1cc(-n2ncc3cc(C#N)cnc32)ncc1-c1cc(CC(C)(C)O)on1 [Example 438, 1-(5-(5-(2-hydroxy-2-methylpropyl)isoxazol-3-yl)-4-(isopropylamino)pyridin-2-yl)-1H-pyrazolo[3,4-b]pyridine-5-carbonitrile]

— patent US10294229B2, “Heteroaryl substituted aminopyridine compounds” (BRISTOL-MYERS SQUIBB COMPANY, priority 2015, dated 2019)
